What was measured:
[1] = Clarity test (compared with yellow-green No. 6 standard colour solution, Chinese Pharmacopoeia 2015, general chapter 0901, method 1); format: physicochemical; settings: 0.02 mg per mL in 1% sodium hydrogencarbonate solution, inspected within 5 minutes
[2] = Single-dose intravenous toxicity in SD rats; format: in vivo, rat; settings: in vivo, iv; SD rat, single i.v., injectable breviscapine made from Example 1; 500, 750, 1000 mg/kg; 14 days observation; read-out: maximum tolerated dose (MTD)
[3] = test system: SD rats (SD大鼠); experiment: Single-dose intravenous toxicity in SD rats; format: in vivo, rat; settings: worked out from rat single i.v. MTD
[4] = Repeated-dose intravenous toxicity in SD rats, four weeks with four-week recovery; format: in vivo, rat; settings: in vivo, iv; SD rat, i.v. once daily, 28 days, recovery 29 days; 200, 400, 600 mg/kg; injectable breviscapine made from Example 1; read-out: no observed adverse effect level (NOAEL)
[5] = test system: SD rats (SD大鼠); experiment: as above; format: in vivo, rat; settings: worked out from rat 28-day i.v. NOAEL
[6] = Single-dose intravenous toxicity in Beagle dogs; format: in vivo, dog; settings: in vivo, iv; Beagle dog, single i.v., injectable breviscapine made from Example 1; 200, 400 mg/kg; 14 days observation; read-out: maximum tolerated dose (MTD)
[7] = test system: Beagle dogs (Beagle犬); experiment: Single-dose intravenous toxicity in Beagle dogs; format: in vivo, dog; settings: worked out from dog single i.v. MTD
[8] = Repeated-dose intravenous toxicity in Beagle dogs, four weeks with four-week recovery; format: in vivo, dog; settings: in vivo, iv; Beagle dog, i.v. once daily, 28 days, recovery 28 days; 25, 50, 100 mg/kg; injectable breviscapine made from Example 1; read-out: no observed adverse effect level (NOAEL)
[9] = test system: Beagle dogs (Beagle犬); experiment: as above; format: in vivo, dog; settings: worked out from dog 28-day i.v. NOAEL
[10] = Single-dose oral gavage toxicity in SD rats; format: in vivo, rat; settings: in vivo; SD rat, single oral gavage, 5000 mg/kg; 14 days observation; read-out: maximum administered dose
[11] = test system: SD rats (SD大鼠); experiment: Single-dose oral gavage toxicity in SD rats; format: in vivo, rat; settings: worked out from rat single oral dose
[12] = test system: rat dementia caused by kainic acid (海人藻酸所致大鼠痴呆); settings: male Wistar rats; cited from earlier work
[13] = test system: rat dementia caused by β-amyloid (β-淀粉样蛋白致大鼠痴呆); settings: male Wistar rats; cited from earlier work
[14] = test system: reflux oesophagitis and gastritis (反流性食道炎以及抗胃炎); settings: cited from earlier work
[15] = in air; cited from earlier work
[16] = aglycone and active metabolite of scutellarin, compared with scutellarin; cited from earlier work
[17] = compared with apigenin and omeprazole

## O=C(O)[C@H]1O[C@@H](Oc2cc3oc(-c4ccc(O)cc4)cc(=O)c3c(O)c2O)[C@H](O)[C@@H](O)[C@@H]1O [实施例1]
[1]
  clarity test conclusion: 符合规定
[2]
  MTD at 336 h: 750 mg/kg
[3]
  equivalent human daily intake of the MTD: 7500 mg
[4]
  NOAEL at 672 h: 200 mg/kg
[5]
  equivalent human daily intake of the NOAEL: 2000 mg
[6]
  MTD at 336 h: 200 mg/kg
[7]
  equivalent human daily intake of the MTD: 6666 mg
[8]
  NOAEL at 672 h: 25 mg/kg
[9]
  equivalent human daily intake of the NOAEL: 833.3 mg

## O=C(O)[C@H]1O[C@@H](Oc2cc3oc(-c4ccc(O)cc4)cc(=O)c3c(O)c2O)[C@H](O)[C@@H](O)[C@@H]1O [实施例2]
[10]
  MTD at 336 h: 5000 mg/kg
[11]
  equivalent human daily intake of the maximum administered dose: 50 g

## O=C(O)[C@H]1O[C@@H](Oc2cc(O)c3c(=O)cc(-c4ccc(O)cc4)oc3c2)[C@H](O)[C@@H](O)[C@@H]1O [5,4’-二羟基黄酮-7-O-β-D-葡萄糖醛酸]
[12]
  effect on pathological changes of brain tissue: 有一定改善作用
[13]
  effect on pathological damage of cerebral cortex and hippocampus: 可减轻β-淀粉样蛋白所致大鼠脑皮层及海马的病理损害
  therapeutic effect on dementia: 有一定的治疗作用
[14]; [17]
  anti-reflux-oesophagitis and anti-gastritis effect: 比芹菜素和奥美拉唑更有效
  reduction of the extent of gastric lesions: 比芹菜素和奥美拉唑更能有效的减小胃损伤范围
[14]; mouse, in vivo
  MOA content produced by induced reflux oesophagitis: 减少由诱导反流性食管炎而产生的MOA的含量
  antioxidant activity: 有抗氧化活性
  glutathione (GSH) produced in acute oesophagitis: 清除急性食管炎产生的谷胱甘肽(GSH)

## O=c1cc(-c2ccc(O)cc2)oc2cc(O)c(O)c(O)c12 [野黄芩素]
[15]
  stability: 在空气中易氧化变为醌类衍生物
[16]
  related biological activity: 更强相关生物活性

Reference: patent publication CN110478361A, “一种安全性高的灯盏花乙素药物组合物及其制备方法” (KUNMING LONGJIN PHARMACEUTICAL CO Ltd, priority 2018, dated 2019)
